This note sets out measurements from ChEMBL document CHEMBL1687887, “Evolution of potent and stable placental-growth-factor-1-targeting CovX-bodies from phage display peptide discovery” (J Med Chem, 2011).

The target in series [1] is T1, Placenta growth factor (Mus musculus, UniProt P49764).
T1 sequence (P49764 whole entry): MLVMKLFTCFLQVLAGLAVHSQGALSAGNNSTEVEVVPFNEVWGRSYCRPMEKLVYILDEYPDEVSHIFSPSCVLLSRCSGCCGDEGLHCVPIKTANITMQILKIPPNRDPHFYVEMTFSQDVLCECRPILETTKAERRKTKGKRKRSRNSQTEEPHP
The experiment in a line: Binding affinity to mouse PlGF.

Series [2] addresses T2, Placenta growth factor (Homo sapiens, UniProt P49763).
T2 sequence (P49763 whole entry): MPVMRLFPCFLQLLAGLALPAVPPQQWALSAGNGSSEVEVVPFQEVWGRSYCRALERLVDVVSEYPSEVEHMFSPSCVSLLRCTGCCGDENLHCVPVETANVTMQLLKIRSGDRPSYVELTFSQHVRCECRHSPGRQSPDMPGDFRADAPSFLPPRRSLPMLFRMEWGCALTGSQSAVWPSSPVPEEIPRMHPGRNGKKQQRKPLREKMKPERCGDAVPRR
Description: Binding affinity to human PlGF-2.

The target of series [3] is T2, Placenta growth factor. The experiment in a line: Inhibition of human PlGF-1-VEGFR-1 interaction by ELISA. For orientation: ELISA stands for enzyme-linked immunosorbent assay.
A short description of series [4]: Stability of the compound in presence of cathepsin B. It counts as ADME.
Series [5] can be described thus: Terminal half life in Swiss Webster mouse at 10 mg/kg, iv. More on the design: dose 10 mg/kg, route intravenous. The note with it: in vivo, read-out: beta t1/2 (converted). It is filed as ADME, organism-based.
The nature of series [6]: Terminal half life in cynomolgus monkey at 10 mg/kg, iv. It is filed as ADME, organism-based, Macaca fascicularis. More on the design: dose 10 mg/kg, route intravenous. To be noted: in vivo, read-out: beta t1/2 (converted).
Series [7] concerns the target T2, Placenta growth factor. The experiment in a line: Binding affinity to human PlGF-1. To be noted: read-out: Kd.
The target in series [8] is T2, Placenta growth factor. The experiment in a line: Inhibition of human PlGF-2-VEGFR-1 interaction by ELISA.
For series [9], the target named is T3, Placenta growth factor (Mus musculus) (UniProt P49764).
T3 sequence (whole entry): T1 sequence (P49764 whole entry)
The experiment in a line: Inhibition of mouse PlGF interaction with human VEGFR-1 by ELISA.

Series [10] deals with T3, Placenta growth factor (Mus musculus). The experiment in a line: Inhibition of mouse PlGF-VEGFR-1 interaction by ELISA.

SMILES strings stand for the structures. Activity calls are given as the source filed them. The calls are words filed in the database; no cut-off is given here. Numbered stars: 1 amine (or outer) side, 2 acyl side, 3 side chain; on linkers, the order of the positions; unused ones are H or OH. Bridge positions count the residues as written; N and C are the ends. Square brackets hold non-standard residues; d marks the D form. Peptide text beside a SMILES is read from it. * marks the point of attachment. X2 = NCCCC[C@H](N[*:1])C(=O)NC(=O)COCC(=O)[*:2]; X1 = O=C(COCC(=O)*)Nc1ccc(CCC(=O)N2CCC2=O)cc1; X3 = O=C(CCc1ccc(N*)cc1)N1CCC1=O; NMeE = CN[C@@H](CCC(=O)O)C(=O)O; Aib = CC(C)(N)C(=O)O

For the compound `CC[C@H](C)[C@@H]1NC(=O)[C@H](Cc2ccc(O)cc2)NC(=O)[C@H](Cc2cnc[nH]2)NC(=O)[C@@H](NC(=O)[C@@H](NC(=O)[C@H](CCC(=O)O)N(C)C(=O)[C@H](Cc2ccccc2)NC(=O)[C@H](C)NC(=O)[C@H](C)NC(=O)[C@H](CC(=O)O)NC(=O)[C@H](C)NC(C)=O)C(C)C)CSSC[C@@H](C(=O)N[C@H](C(=O)N[C@@H](CCCCNC(C)=O)C(=O)NC(C)(C)C(N)=O)[C@@H](C)O)NC(=O)[C@H](Cc2cnc[nH]2)NC(=O)C(C)(C)NC(=O)[C@H](CC(C)C)NC(=O)[C@H](CCCCNC(=O)COCC(=O)Nc2ccc(CCC(=O)N3CCC3=O)cc2)NC1=O` (Ac-ADAAF[NMeE]VCHYIK(X1)L[Aib]HCTK(Ac)[Aib]-NH2; disulfide 8-16), the Kd – broadly, the free concentration of one partner at which half of the binding sites on the other are occupied at equilibrium, for simple one-to-one binding – is 70 nM at Placenta growth factor [1], 9 nM on Placenta growth factor [2] and 0.1 nM at Placenta growth factor [7]. On Placenta growth factor [3], the concentration for half-maximal inhibition (IC50) – broadly, the point on the concentration scale where inhibition reaches its midpoint – was 0.4 nM. Moreover, the Stability result in series [4] is “Stable”. The half-life was 75 h in series [5] and 78 h in [6].

On to `CSCC[C@H](NC(=O)[C@@H](NC(=O)[C@H](CCCCN)NC(=O)[C@@H]1CSSC[C@H](NC(=O)[C@@H](NC(=O)[C@H](CC(=O)O)NC(=O)[C@H](Cc2ccccc2)NC(C)=O)C(C)C)C(=O)N[C@@H](CCCCN)C(=O)N[C@@H](Cc2c[nH]c3ccccc23)C(=O)N[C@@H](C(C)C)C(=O)N[C@@H]([C@@H](C)O)C(=O)N[C@@H](CC(C)C)C(=O)N2CCC[C@H]2C(=O)N[C@@H](Cc2cnc[nH]2)C(=O)N1)C(C)C)C(=O)N[C@@H](CCCCN)C(=O)NC(=O)COCC(=O)Nc1ccc(CCC(=O)N2CCC2=O)cc1` (Ac-FDVCKWVTLPHCKVM[X2]-X3; disulfide 4-12), for which the equilibrium dissociation constant (Kd) at Placenta growth factor [1] amounted to 400 nM; at Placenta growth factor [2] it was 100 nM; on Placenta growth factor [7], 4 nM. Also, the IC50 was 2 nM at Placenta growth factor [3] and 150 nM against Placenta growth factor [8]. Further, the inhibition result in [9] and in series [10] was “inactive” in each case.
